Reference: US12258327B2, “5-membered heteroaryl-containing aminopyridine compounds as EGFR inhibitors” (YUHAN CORPORATION, priority 2021, dated 2025)
Like-named read-outs stand apart in the source and are kept apart here.

What was measured:
EGFR L858R/C797S = EGFR L858R/C797S (Homo sapiens, UniProt P00533, C797S/L858R); assay: Biochemical EGFR kinase assay (Lance Ultra TR-FRET), double mutant L858R/C797S
Experimental: (§1) Biochemical EGFR kinase assays were conducted using Lance Ultra time-resolved fluorescence resonance energy transfer (TR-FRET) technology from Perkin-Elmer. Compounds of the invention were initially diluted to 20 mM in 100% DMSO for storage and made into kinase buffer solution to create a compound concentration ranging from 0.003 μM and 10 μM.
(§2) Each kinase reactions were incubated at room temperature for 1 hour and then stopped by the addition of 4 μL of stop solution (10 mM EDTA). The specific Europium-labeled-anti-phosphopeptide antibody (PerkinElmer, AD0069) diluted in LANCE detection buffer was then added to a final concentration of 2 nM. After 60 minutes incubation at room temperature the LANCE signal was measured on an EnVision Multilabel Reader (Perkin-Elmer). Excitation wavelength was set at 320 nm and emission monitored at 615 nm (donor) and 665 nm (acceptor). The IC50 values were determined using GraphPad prism software (GraphPad Software, Inc., San Diego, CA, USA).

EGFR del19/T790M/C797S = EGFR del19/T790M/C797S (Homo sapiens, UniProt P00533, C797S/DEL746-750/T790M); assay: Biochemical EGFR kinase assay (Lance Ultra TR-FRET), triple mutant del19/T790M/C797S
Experimental: as §1, §2

EGFR wildtype (WT) = EGFR wildtype (WT) (Homo sapiens, UniProt P00533); assay: Biochemical EGFR kinase assay (Lance Ultra TR-FRET), wildtype
Experimental: as §1, §2

EGFR L858R/T790M/C797S = EGFR L858R/T790M/C797S (Homo sapiens, UniProt P00533, C797S/L858R/T790M); assay: Biochemical EGFR kinase assay (Lance Ultra TR-FRET), triple mutant L858R/T790M/C797S
Experimental: as §1, §2

EGFR del19/C797S = EGFR del19/C797S (Homo sapiens, UniProt P00533, C797S/DEL746-750); assay: Biochemical EGFR kinase assay (Lance Ultra TR-FRET), double mutant del19/C797S; details: Km ATP; read-out: IC50 del19/C797S (nM) Km ATP
Experimental: as §1, §2

[1] = IC50 L858R/C797S (nM) 100 μM ATP, 100 μM ATP
[2] = IC50 del19/T790M/C797S (nM) 100 μM ATP, 100 μM ATP
[3] = IC50 WT (nM) 100 μM ATP, 100 μM ATP
[4] = Km ATP, read-out: IC50 L858R/C797S (nM) Km ATP
[5] = Km ATP, read-out: IC50 del19/T790M/C797S (nM) Km ATP
[6] = Km ATP, read-out: IC50 WT (nM) Km ATP
[7] = IC50 L858R/T790M/C797S (nM) 100 μM ATP, 100 μM ATP
[8] = Km ATP, read-out: IC50 L858R/T790M/C797S (nM) Km ATP

Sequence of EGFR wildtype (WT) (P00533 25-1210): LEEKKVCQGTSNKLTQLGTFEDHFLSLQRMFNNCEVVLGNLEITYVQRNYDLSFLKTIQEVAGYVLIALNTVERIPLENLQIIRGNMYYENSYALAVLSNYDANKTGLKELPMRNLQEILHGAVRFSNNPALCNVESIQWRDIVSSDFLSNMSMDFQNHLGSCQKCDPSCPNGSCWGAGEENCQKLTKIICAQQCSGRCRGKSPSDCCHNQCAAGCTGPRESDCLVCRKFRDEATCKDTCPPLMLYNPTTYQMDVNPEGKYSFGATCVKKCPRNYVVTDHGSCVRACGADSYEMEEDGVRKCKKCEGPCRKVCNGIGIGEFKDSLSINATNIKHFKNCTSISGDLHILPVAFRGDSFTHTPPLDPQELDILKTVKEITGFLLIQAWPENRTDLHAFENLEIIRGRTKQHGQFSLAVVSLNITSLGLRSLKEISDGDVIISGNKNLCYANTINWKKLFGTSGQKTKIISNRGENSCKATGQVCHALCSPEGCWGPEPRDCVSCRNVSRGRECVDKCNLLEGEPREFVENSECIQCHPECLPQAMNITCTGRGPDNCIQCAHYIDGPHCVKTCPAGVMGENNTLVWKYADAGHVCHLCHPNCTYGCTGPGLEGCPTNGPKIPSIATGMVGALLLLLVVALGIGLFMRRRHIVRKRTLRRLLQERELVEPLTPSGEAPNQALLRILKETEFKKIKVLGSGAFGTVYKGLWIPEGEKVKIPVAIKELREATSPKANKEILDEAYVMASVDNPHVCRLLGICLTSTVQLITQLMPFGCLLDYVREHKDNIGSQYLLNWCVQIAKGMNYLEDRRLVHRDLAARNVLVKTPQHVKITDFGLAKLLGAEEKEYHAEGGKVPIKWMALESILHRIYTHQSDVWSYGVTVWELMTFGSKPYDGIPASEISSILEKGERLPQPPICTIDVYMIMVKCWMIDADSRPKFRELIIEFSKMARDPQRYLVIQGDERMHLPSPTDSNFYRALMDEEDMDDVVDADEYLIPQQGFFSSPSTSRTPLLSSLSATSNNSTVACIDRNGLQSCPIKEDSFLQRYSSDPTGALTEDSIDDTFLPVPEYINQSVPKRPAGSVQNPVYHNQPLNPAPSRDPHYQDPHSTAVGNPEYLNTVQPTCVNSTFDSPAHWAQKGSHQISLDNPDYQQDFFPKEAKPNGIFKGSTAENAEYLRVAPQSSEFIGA
Sequence of EGFR del19/T790M/C797S (P00533 with tags, fused parts or gaps DEL746-750/T790M/C797S): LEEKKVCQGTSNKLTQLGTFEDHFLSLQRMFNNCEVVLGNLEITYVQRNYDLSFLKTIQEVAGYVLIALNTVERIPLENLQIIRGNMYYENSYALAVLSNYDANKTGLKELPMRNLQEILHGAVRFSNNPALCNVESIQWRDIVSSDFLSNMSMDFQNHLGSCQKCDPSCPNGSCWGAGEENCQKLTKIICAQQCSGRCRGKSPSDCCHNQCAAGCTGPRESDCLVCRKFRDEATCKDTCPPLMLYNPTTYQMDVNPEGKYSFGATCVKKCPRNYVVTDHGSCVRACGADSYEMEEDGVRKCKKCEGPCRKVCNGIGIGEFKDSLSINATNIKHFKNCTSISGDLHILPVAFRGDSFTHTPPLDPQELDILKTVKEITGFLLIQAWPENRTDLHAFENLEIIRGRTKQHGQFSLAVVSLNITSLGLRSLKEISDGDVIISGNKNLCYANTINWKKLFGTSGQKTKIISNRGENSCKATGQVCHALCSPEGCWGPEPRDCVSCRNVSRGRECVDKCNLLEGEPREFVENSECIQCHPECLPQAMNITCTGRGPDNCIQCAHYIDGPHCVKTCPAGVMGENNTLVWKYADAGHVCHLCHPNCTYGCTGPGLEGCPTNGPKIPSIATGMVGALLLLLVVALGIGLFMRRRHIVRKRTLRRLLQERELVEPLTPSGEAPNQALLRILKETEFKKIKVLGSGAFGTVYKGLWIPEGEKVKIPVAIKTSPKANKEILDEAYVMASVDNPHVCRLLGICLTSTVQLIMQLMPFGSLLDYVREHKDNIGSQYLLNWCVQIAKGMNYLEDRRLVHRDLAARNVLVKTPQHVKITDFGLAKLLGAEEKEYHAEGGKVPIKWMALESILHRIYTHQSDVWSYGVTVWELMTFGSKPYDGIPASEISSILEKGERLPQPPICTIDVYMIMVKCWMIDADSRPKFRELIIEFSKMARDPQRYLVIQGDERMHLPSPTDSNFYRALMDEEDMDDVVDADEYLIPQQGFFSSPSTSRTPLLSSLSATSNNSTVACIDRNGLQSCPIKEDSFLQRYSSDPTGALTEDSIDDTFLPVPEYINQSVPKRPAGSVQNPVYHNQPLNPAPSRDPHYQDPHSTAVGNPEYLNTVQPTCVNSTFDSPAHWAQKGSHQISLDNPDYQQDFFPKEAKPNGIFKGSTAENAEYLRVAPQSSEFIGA
Sequence of EGFR L858R/T790M/C797S (P00533 25-1210 T790M/C797S/L858R): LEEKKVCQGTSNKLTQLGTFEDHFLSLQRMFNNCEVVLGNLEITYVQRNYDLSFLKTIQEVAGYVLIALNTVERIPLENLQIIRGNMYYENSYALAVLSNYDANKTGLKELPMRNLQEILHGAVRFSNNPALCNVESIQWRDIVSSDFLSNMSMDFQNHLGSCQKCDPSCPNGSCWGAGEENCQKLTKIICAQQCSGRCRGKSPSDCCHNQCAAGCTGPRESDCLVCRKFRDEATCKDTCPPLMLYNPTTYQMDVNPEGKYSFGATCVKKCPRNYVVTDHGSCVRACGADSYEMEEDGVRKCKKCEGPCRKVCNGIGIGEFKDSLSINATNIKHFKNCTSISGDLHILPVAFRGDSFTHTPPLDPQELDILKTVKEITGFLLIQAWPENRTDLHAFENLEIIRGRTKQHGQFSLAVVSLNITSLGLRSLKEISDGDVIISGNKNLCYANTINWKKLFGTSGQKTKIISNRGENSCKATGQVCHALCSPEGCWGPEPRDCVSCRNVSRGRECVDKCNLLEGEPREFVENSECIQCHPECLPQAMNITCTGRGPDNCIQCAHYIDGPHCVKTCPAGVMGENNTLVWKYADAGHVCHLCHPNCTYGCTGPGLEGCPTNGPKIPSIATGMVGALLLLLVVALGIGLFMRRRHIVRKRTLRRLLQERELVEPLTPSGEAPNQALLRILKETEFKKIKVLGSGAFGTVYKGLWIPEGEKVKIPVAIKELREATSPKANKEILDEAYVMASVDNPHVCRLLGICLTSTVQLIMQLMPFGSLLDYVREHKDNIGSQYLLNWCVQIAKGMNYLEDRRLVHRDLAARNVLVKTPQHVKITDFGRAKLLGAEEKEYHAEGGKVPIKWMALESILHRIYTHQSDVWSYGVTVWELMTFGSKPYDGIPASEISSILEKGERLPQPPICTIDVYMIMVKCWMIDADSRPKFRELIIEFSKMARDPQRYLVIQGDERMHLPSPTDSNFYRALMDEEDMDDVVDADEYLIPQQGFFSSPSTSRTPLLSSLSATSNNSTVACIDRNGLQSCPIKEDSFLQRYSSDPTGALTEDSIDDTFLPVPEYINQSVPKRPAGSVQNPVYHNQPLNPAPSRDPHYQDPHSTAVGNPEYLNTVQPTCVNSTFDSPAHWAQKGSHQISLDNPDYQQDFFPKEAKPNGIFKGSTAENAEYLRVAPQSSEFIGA
Sequence of EGFR L858R/C797S (P00533 25-1210 C797S/L858R): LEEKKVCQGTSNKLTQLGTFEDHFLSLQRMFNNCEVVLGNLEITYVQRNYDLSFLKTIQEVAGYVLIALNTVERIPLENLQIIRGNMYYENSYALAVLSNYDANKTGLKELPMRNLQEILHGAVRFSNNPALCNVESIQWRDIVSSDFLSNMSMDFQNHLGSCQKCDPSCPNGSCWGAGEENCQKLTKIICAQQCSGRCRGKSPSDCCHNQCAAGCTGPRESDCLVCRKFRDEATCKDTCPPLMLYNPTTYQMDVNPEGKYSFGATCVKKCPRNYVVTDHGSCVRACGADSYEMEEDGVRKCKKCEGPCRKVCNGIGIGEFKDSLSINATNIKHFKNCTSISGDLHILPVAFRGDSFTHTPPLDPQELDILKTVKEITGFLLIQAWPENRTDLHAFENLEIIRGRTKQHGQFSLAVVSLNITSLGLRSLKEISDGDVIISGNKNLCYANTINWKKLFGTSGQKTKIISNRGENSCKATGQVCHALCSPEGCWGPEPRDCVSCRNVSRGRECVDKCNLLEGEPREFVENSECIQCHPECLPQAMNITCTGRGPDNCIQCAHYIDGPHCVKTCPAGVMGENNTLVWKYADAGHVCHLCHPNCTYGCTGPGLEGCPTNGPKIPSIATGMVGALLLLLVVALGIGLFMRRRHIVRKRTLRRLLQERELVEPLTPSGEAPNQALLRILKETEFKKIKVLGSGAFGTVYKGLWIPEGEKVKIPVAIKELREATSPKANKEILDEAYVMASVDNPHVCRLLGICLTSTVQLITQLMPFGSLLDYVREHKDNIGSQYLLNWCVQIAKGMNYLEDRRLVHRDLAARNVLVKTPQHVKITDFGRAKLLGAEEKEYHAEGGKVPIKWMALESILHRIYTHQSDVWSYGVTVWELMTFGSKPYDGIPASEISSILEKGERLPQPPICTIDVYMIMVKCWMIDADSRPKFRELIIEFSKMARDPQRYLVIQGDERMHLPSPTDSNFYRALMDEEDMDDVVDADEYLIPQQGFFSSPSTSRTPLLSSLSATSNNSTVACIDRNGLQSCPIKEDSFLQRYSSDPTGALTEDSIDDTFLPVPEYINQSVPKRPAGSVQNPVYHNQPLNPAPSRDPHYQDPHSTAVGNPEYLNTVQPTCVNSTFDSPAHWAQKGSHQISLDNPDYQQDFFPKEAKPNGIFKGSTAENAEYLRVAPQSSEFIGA

| SMILES | IC50 (EGFR L858R/C797S; [1]) [nM] | IC50 (EGFR del19/T790M/C797S; [2]) [nM] | IC50 (EGFR wildtype (WT); [3]) [nM] | IC50 (EGFR L858R/C797S; [4]) [nM] | IC50 (EGFR del19/T790M/C797S; [5]) [nM] | IC50 (EGFR wildtype (WT); [6]) [nM] | IC50 (EGFR L858R/T790M/C797S; [7]) [nM] | IC50 (EGFR L858R/T790M/C797S; [8]) [nM] | IC50 (EGFR del19/C797S) [nM] |
| --- | --- | --- | --- | --- | --- | --- | --- | --- | --- |
| C[C@]1(O)CC[C@@H](Nc2cc(Nc3ccnc(-c4cnn(S(=O)(=O)C5CC5)c4)n3)ncc2-c2csc(C(F)(F)F)n2)CC1 [Example 51, (1s,4s)-4-((2-((2-(1-(Cyclopropylsulfonyl)-1H-pyrazol-4-yl)pyrimidin-4-yl)amino)-5-(2-(trifluoromethyl)thiazol-4-yl)pyridin-4-yl)amino)-1-methylcyclohexan-1-ol] | 7 | 2.4 | > 10000 | – | – | – | – | – | – |
| CC1(O)CCC(Oc2cc(Nc3ccnc(-c4cnn(S(=O)(=O)C5CC5)c4)n3)ncc2-c2cnn(C(F)F)c2)CC1 (stereo not shown) [Example 73, 4-((2-((2-(1-(Cyclopropylsulfonyl)-1H-pyrazol-4-yl)pyrimidin-4-yl)amino)-5-(1-(difluoromethyl)-1H-pyrazol-4-yl)pyridin-4-yl)oxy)-1-methylcyclohexan-1-ol] | 41.3 | 0.4 | > 10000 | 2.9 | 0.5 | 65.3 | 1.1 | 0.2 | – |
| Cn1cc(-c2cnc(Nc3ccnc(-c4cnn(S(=O)(=O)C5CC5)c4)n3)cc2C#CC(C)(C)O)cn1 [Example 4, 4-(2-((2-(1-(Cyclopropylsulfonyl)-1H-pyrazol-4-yl)pyrimidin-4-yl)amino)-5-(1-methyl-1H-pyrazol-4-yl)pyridin-4-yl)-2-methylbut-3-yn-2-ol] | – | – | – | 75.9 | 3.2 | 214 | – | 0.8 | – |
| C[C@]1(O)CC[C@@H](Nc2cc(Nc3ccnc(-c4cnn(S(=O)(=O)C5CC5)c4)n3)ncc2-c2nc(C(F)F)cs2)CC1 [Example 122, (1s,4s)-4-((2-((2-(1-(Cyclopropylsulfonyl)-1H-pyrazol-4-yl)pyrimidin-4-yl)amino)-5-(4-(difluoromethyl)thiazol-2-yl)pyridin-4-yl)amino)-1-methylcyclohexan-1-ol] | 8.5 | 0.6 | 1420 | – | – | 9 | 0.4 | 0.3 | – |
| C[C@]1(O)CC[C@@H](Nc2cc(Nc3ccnc(-c4cnn(S(=O)(=O)C5CC5)c4)n3)ncc2-c2ccn(CCC(F)(F)F)n2)CC1 [Example 295, (1s,4s)-4-((2-((2-(1-(Cyclopropylsulfonyl)-1H-pyrazol-4-yl)pyrimidin-4-yl)amino)-5-(1-(3,3,3-trifluoropropyl)-1H-pyrazol-3-yl)pyridin-4-yl)amino)-1-methylcyclohexan-1-ol] | – | – | – | 0.3 | 0.7 | 3.8 | – | 0.6 | – |
| Cn1nc(-c2cnc(Nc3ccnc(-c4cnn(S(=O)(=O)C5CC5)c4)n3)cc2N[C@H]2CC[C@@](C)(O)CC2)cc1N1CCC(F)(F)CC1 [Example 307, (1s,4s)-4-((2-((2-(1-(Cyclopropylsulfonyl)-1H-pyrazol-4-yl)pyrimidin-4-yl)amino)-5-(5-(4,4-difluoropiperidin-1-yl)-1-methyl-1H-pyrazol-3-yl)pyridin-4-yl)amino)-1-methylcyclohexan-1-ol] | – | – | – | – | – | 20.9 | – | – | 7.5 |
| C[C@]1(O)CC[C@@H](Nc2cc(Nc3ccnc(-c4cnn(S(=O)(=O)C5CC5)c4)n3)ncc2-n2ccc(C(F)F)n2)CC1 [Example 172, (1s,4s)-4-((2-((2-(1-(Cyclopropylsulfonyl)-1H-pyrazol-4-yl)pyrimidin-4-yl)amino)-5-(3-(difluoromethyl)-1H-pyrazol-1-yl)pyridin-4-yl)amino)-1-methylcyclohexan-1-ol] | – | – | – | 9.3 | 0.3 | 3.4 | – | 0.1 | – |
| Cn1ccc(-c2cnc(Nc3ccnc(-c4cnn(S(=O)(=O)C5CC5)c4)n3)cc2N[C@H]2CC[C@@H](C(C)(C)O)CC2)n1 [Example 42, 2-((1s,4s)-4-((2-((2-(1-(Cyclopropylsulfonyl)-1H-pyrazol-4-yl)pyrimidin-4-yl)amino)-5-(1-methyl-1H-pyrazol-3-yl)pyridin-4-yl)amino)cyclohexyl)propan-2-ol] | 11.3 | 1.4 | 7830 | 1 | 0.9 | – | 1.9 | 0.6 | – |
| CN1CCN(c2nc(-c3cnc(Nc4ccnc(-c5cnn(S(=O)(=O)C6CC6)c5)n4)cc3N[C@H]3CC[C@@](C)(O)CC3)cs2)CC1 [Example 121, (1s,4s)-4-((2-((2-(1-(Cyclopropylsulfonyl)-1H-pyrazol-4-yl)pyrimidin-4-yl)amino)-5-(2-(4-methylpiperazin-1-yl)thiazol-4-yl)pyridin-4-yl)amino)-1-methylcyclohexan-1-ol] | 19.8 | 1.7 | 8920 | 2.4 | 1.2 | 12.8 | 1.4 | 0.4 | – |
| CC(C)n1ccc(-c2cnc(Nc3ccnc(-c4cnn(S(=O)(=O)C5CC5)c4)n3)cc2N[C@H]2CC[C@@](C)(O)CC2)n1 [Example 84, (1s,4s)-4-((2-((2-(1-(Cyclopropylsulfonyl)-1H-pyrazol-4-yl)pyrimidin-4-yl)amino)-5-(1-isopropyl-1H-pyrazol-3-yl)pyridin-4-yl)amino)-1-methylcyclohexan-1-ol] | 6.7 | 0.6 | > 10000 | – | – | – | 1 | – | – |
| CC1(O)CCC(Nc2cc(Nc3ccnc(-c4cnn(S(=O)(=O)C5CCOC5)c4)n3)ncc2-c2ccn(C(F)F)n2)CC1 (stereo not shown) [Example 114, (1s,4s)-4-((5-(1-(Difluoromethyl)-1H-pyrazol-3-yl)-2-((2-(1-((tetrahydrofuran-3-yl)sulfonyl)-1H-pyrazol-4-yl)pyrimidin-4-yl)amino)pyridin-4-yl)amino)-1-methylcyclohexan-1-ol] | – | – | – | 1 | 0.6 | 4.2 | – | 0.2 | – |
| Cn1cc(C#Cc2cc(Nc3ccnc(-c4cnn(S(=O)(=O)C5CC5)c4)n3)ncc2-c2cnn(C(F)F)c2)cn1 [Example 2, 2-(1-(Cyclopropylsulfonyl)-1H-pyrazol-4-yl)-N-(5-(1-(difluoromethyl)-1H-pyrazol-4-yl)-4-((1-methyl-1H-pyrazol-4-yl)ethynyl)pyridin-2-yl)pyrimidin-4-amine] | – | – | – | – | 31.3 | – | – | – | 371 |
| C[C@]1(O)CC[C@@H](Nc2cc(Nc3ccnc(-c4cnn(S(=O)(=O)C5CCCC5)c4)n3)ncc2-c2ccn(C(F)F)n2)CC1 [Example 115, (1s,4s)-4-((2-((2-(1-(Cyclopentylsulfonyl)-1H-pyrazol-4-yl)pyrimidin-4-yl)amino)-5-(1-(difluoromethyl)-1H-pyrazol-3-yl)pyridin-4-yl)amino)-1-methylcyclohexan-1-ol] | – | – | – | – | 1.9 | 20.2 | – | 1.3 | – |
| CN(C)C(=O)C[C@H]1CC[C@@H](Nc2cc(Nc3ccnc(-c4cnn(S(=O)(=O)C5CC5)c4)n3)ncc2-c2cc(C(F)(F)F)n(C)n2)CC1 [Example 258, 2-((1s,4s)-4-((2-((2-(1-(Cyclopropylsulfonyl)-1H-pyrazol-4-yl)pyrimidin-4-yl)amino)-5-(1-methyl-5-(trifluoromethyl)-1H-pyrazol-3-yl)pyridin-4-yl)amino)cyclohexyl)-N,N-dimethylacetamide] | 26.7 | 5.1 | 2070 | – | 2.5 | 9 | 2.8 | 1.4 | – |
| CC(C)(O)[C@H]1CC[C@@H](Nc2cc(Nc3ccnc(-c4cnn(S(=O)(=O)C5CC5)c4)n3)ncc2-c2ccn(C3COC3)n2)CC1 [Example 283, 2-((1s,4s)-4-((2-((2-(1-(Cyclopropylsulfonyl)-1H-pyrazol-4-yl)pyrimidin-4-yl)amino)-5-(1-(oxetan-3-yl)-1H-pyrazol-3-yl)pyridin-4-yl)amino)cyclohexyl)propan-2-ol] | 2.9 | 0.6 | 2000 | 0.6 | 0.6 | 4.8 | 0.5 | 0.3 | – |
| CN(C)CC1(C)CCC(Nc2cc(Nc3ccnc(-c4cnn(S(=O)(=O)C5CC5)c4)n3)ncc2-c2ccn(C(F)F)n2)CC1 (stereo not shown) [Example 207, N^2-(2-(1-(Cyclopropylsulfonyl)-1H-pyrazol-4-yl)pyrimidin-4-yl)-5-(1-(difluoromethyl)-1H-pyrazol-3-yl)-N^4-(4-((dimethylamino)methyl)-4-methylcyclohexyl)pyridine-2,4-diamine] | 200 | 0.7 | 5120 | 10.5 | 0.8 | 15.3 | 1 | 0.3 | – |
